In patent EP0535104B1, “HETEROCYCLIC COMPOUNDS AND THEIR PREPARATION AND USE” (NOVO NORDISK A/S, priority 1990, dated 1992):

test system: benzodiazepine receptors; assay: in vivo displacement of radioactive labelled flunitrazepam from benzodiazepine receptors; settings: dose which causes the specific binding of flunitrazepam to benzodiazepine receptors in a living brain to be reduced to 50% of the control value; test as described in US 4,774,245
Source text: The pharmaceutical properties of the compounds of the invention can be illustrated by determining their capability for displacing radioactive labelled flunitrazepam from benzodiazepine receptors.
The displacement activity of the compounds of the invention may be found by determining the ED50 value. The ED50 value represents the dose (mg/kg) of a test substance which causes the specific binding of flunitrazepam to benzodiazepine receptors in a living brain to be reduced to 50% of the control value.
Such an in vivo test is carried out as described in US 4,774,245.

SMILES	ED50 [mg/kg]
CN(C)c1nc2ccccc2n2cnc(-c3noc(C4CC4)n3)c12.Cl [Compound 4, 3-(5-cyclopropyl-1,2,4-oxadiazol-3-yl)-4-dimethylamino-imidazo[1,5-a]quinoxaline hydrochloride]	4.1
CN(C)c1nc2c(-c3noc(C4CC4)n3)ncn2c2ccccc12 [Compound 13, 3-(5-cyclopropyl-1,2,4-oxadiazol-3-yl)-5-dimethylamino-imidazo[1,5-a]quinazoline]	1.5
c1ccc2c(c1)c(N1CCOCC1)nc1c(-c3noc(C4CC4)n3)ncn12 [Compound 14, 3-(5-cyclopropyl-1,2,4-oxadiazol-3-yl)-5-morpholino-imidazo[1,5-a]quinazoline]	1.9
c1ccc2c(c1)c(N1CCOCC1)nc1c(-c3nc(C4CC4)no3)ncn12 [Compound 19, 3-(3-cyclopropyl-1,2,4-oxadiazol-5-yl)-5-morpholino-imidazo[1,5-a]quinazoline]	1.6
